Reference: patent publication US20070203141A1 (BOEHRINGER INGELHEIM PHARMACEUTICALS, INC., priority 2001, published 2007)
Values joined by “and” are separate entries in the source; they are usually repeats but may differ in a detail not shown here. Equal values may be shown once.

Columns and labels:
[1] = tested on: TNFα release, monkey whole blood; test: TNFα release from LPS stimulated monkey whole blood; assay type: cell-based
Excerpt: (§1) As a surrogate model for man, we developed an endotoxin model in the cynomolgus monkey to examine the effect of p38 MAPK inhibitors on modulating TNFα production.

[2] = Once daily for 7 days multiple dose study, safety and tolerability; assay type: in vivo, human
Method: Transaminase levels peaked 2 to 4 days after the end of drug therapy on day 7 with resolution over the next 7 to 14 days.
(§2) This was a randomized, double-blind, placebo-controlled (2:6 ratio per dose group), multiple dose (20, 50 and 150 mg) study to assess pharmacokinetics, pharmacodynamics, safety and tolerability using a tablet formulation administered once a day for one week. Safety was determined by adverse events, laboratory tests, and physical examination. Kinetics were assessed by measuring plasma levels of drug and pharmacodynamics was assessed ex vivo by the effects of LPS induced production of TNFα, and the TNFα or fMLP induced activation state of PMN in human whole blood as measured by the ratio of Mac-1/Lselectin cell surface expression. Twenty-four healthy male volunteers (mean age 30 years, mean weight 76 kg) were studied. […] Two subjects receiving the 150 mg dose developed acne. There were no clinically significant changes in laboratory assessments except for a dose related, reversible rise in AST and ALT. […] This transaminase increase was not associated with changes in other liver function tests, nor was it associated with any liver related signs or symptoms. […] Steady-state was attained within 2 days.

[3] = Twice daily for 14 days Phase I study, safety; assay type: in vivo, human; conditions: for Subjects with transaminase values above the upper limit of normal: preliminary analysis, placebo 2
Method: (§3) This study was a Phase I, randomized, double-blind, placebo-controlled, multiple-dose trial to investigate the safety and pharmacokinetics of 15 or 30 mg of an orally available p38MAPK inhibitor administered twice daily compared to placebo for 14 days. Subjects were 49 healthy males, 16 per treatment group (one subject on placebo was discontinued). […] Based on preliminary analysis of this study, 9 of 48 subjects had transaminase values above the upper limit of normal (UNL), 2 in the placebo, 3 in the 15 mg dose group and 4 in 30 mg dose group. Three subjects experienced ALT rises 2-3 fold greater than UNL, one in each dose group. […] There were no relevant changes in other laboratory studies, EKGs or physical examinations.

[4] = Once daily for 7 days multiple dose study, pharmacokinetics; assay type: in vivo; conditions: human
Method: as §2

[5] = tested on: TNFα production; test: Cynomolgus monkey endotoxin model, duration of action, PO chewable tablets 12 hours prior to LPS; assay type: in vivo; conditions: for Inhibition of TNFα production: vs placebo; for Peak plasma level: cynomolgus monkey
Excerpt: as §1

[6] = tested on: TNFα; test: Once daily for 7 days study, ex vivo LPS induced production of TNFα in human whole blood; conditions: any of the doses used (20, 50, 150 mg once daily for 7 days)
Method: as §2

[7] = Twice daily for 14 days Phase I study, pharmacokinetics; assay type: in vivo; conditions: human
Method: as §3

[8] = tested on: TNFα release, human whole blood; test: TNFα release from LPS stimulated human whole blood; assay type: cell-based
[9] = tested on: TNFα production; test: Human endotoxemia trial, LPS-induced TNFα production; assay type: in vivo; conditions: for Inhibition of LPS-induced TNFα production: human, vs placebo
Excerpt: Intravenous administration of endotoxin represents a safe, well-defined model of acute inflammation in humans. It is also an excellent tool to study the mechanisms contributing to inflammatory responses in man in vivo.
The endotoxin (LPS) was obtained from: Escherichia coli LPS (lot G; United States Pharmacopoeial Convention, Rockville, Md. USA).
Percent inhibition was obtained by calculating the percent difference between the median peak plasma pharmacodynamic endpoint concentrations of the placebo group and the maximum endpoint concentration achieved by each individual. […] [formula]

[10] = Phase 1 single dose trial, pharmacokinetics; assay type: in vivo; conditions: human, 4 mg single dose
Method: (§4) Thus, 4 mg would be efficacious in inhibiting TNFα production.

[11] = tested on: TNFα; test: Single dose rising trial (U00-1627), ex vivo TNFα inhibition; assay type: in vivo, human; conditions: single dose rising trial U00-1627
Method: as §4
This discrepancy between in vivo and ex vivo and in vivo and in vitro was also observed in cynomolgus monkeys (U99-3145).

[12] = tested on: TNFα release from LPS stimulated human PBMC; test: TNFα release from LPS stimulated human PBMC; assay type: cell-based
[13] = tested on: PMN (neutrophil) activation in human whole blood; test: Once daily for 7 days study, ex vivo TNFα or fMLP induced activation state of PMN (Mac-1/Lselectin ratio); assay type: in vivo
Method: as §2

[14] = tested on: plasma TNFα production; test: Cynomolgus monkey endotoxin model, IV dosing just prior to LPS challenge; assay type: in vivo; conditions: vs vehicle
Excerpt: as §1

[15] = tested on: TNFα production; test: Mouse model of LPS-induced TNFα production; assay type: in vivo; conditions: dosed orally 30 minutes prior to LPS challenge
[16] = 150 mg once daily for 7 days, all 6 subjects

Cc1ccc(-n2nc(C(C)(C)C)cc2NC(=O)Nc2ccc(OCCN3CCOCC3)c3ccccc23)cc1 [BIRB 796 BS]
IC50 [1]: 4 µM
Change in γ-GT ([2]; 150 mg daily for seven days): small increase in γ-GT
Elevations in AST and ALT ([2]; 150 mg daily for seven days): moderate elevations in AST and ALT
Tolerability ([2]; 150 mg for seven days): not considered well tolerated
Rise in ALT above the upper limit of normal [2, 16]: ≤ 3.5 fold
Rise in AST above the upper limit of normal [2, 16]: ≤ 2 fold
Tolerability ([2]; doses up to 50 mg (20 and 50 mg) daily for 7 days): well tolerated
Subjects with transaminase values above the upper limit of normal ([3]; 15 mg twice daily group (16 per group)): 3 subjects
Subjects with transaminase values above the upper limit of normal ([3]; 30 mg twice daily group (16 per group)): 4 subjects
Tolerability ([3]; doses up to 30 mg twice daily for two weeks): well tolerated
Day 7 mean AUC0-24 ([4]; 20 mg once daily): 364 ng·h/mL
Day 7 mean Cmax ([4]; 20 mg once daily): 116 ng/mL
Day 7 mean AUC0-24 ([4]; 50 mg once daily): 1324 ng·h/mL
Day 7 mean Cmax ([4]; 50 mg once daily): 308 ng/mL
Day 7 mean AUC0-24 ([4]; 150 mg once daily): 5924 ng·h/mL
Day 7 mean Cmax ([4]; 150 mg once daily): 1108 ng/mL
Time to steady-state ([4]; once daily dosing): ≤ 2 days
Inhibition of TNFα production ([5]; 1 mg/kg PO 12 hours prior to IV LPS, NS): 44%
Inhibition of TNFα production ([5]; 3 mg/kg PO 12 hours prior to IV LPS, p<0.05): 61%
Inhibition of TNFα production ([5]; 20 mg/kg PO 12 hours prior to IV LPS, p<0.01): 84%
Peak plasma level ([5]; 1 mg/kg PO chewable tablets): 0.003 µM
Peak plasma level ([5]; 3 mg/kg PO chewable tablets): 0.02 µM
Peak plasma level ([5]; 20 mg/kg PO chewable tablets): 1.4 µM
Ex vivo inhibition of TNFα [6]: No inhibition
AUC0-12 (mean±SD) on day 14 ([7]; 15 mg twice daily): 334 ± 145 ng·h/mL
Cmax (mean±SD) on day 14 ([7]; 15 mg twice daily): 109 ± 51 ng/mL
AUC0-12 (mean±SD) on day 14 ([7]; 30 mg twice daily): 659 ± 449 ng·h/mL
Cmax (mean±SD) on day 14 ([7]; 30 mg twice daily): 208 ± 109 ng/mL
Mean elimination half-life ([7]; 15 or 30 mg twice daily for 14 days): 7.3 h
IC50 [8]: 0.8 µM
EC50 for inhibiting TNFα production in vivo ([9]; Emax model, plasma concentration ten minutes prior to LPS challenge): 0.02372 µg/mL
Emax (% Inhibition), TNFα ([9]; Emax model, pre-LPS challenge plasma concentration vs percent inhibition of peak TNFα): 95% and 95.34%
Inhibition of LPS-induced TNFα production ([9]; 50 mg orally 3 hours prior to LPS challenge): 88%
Inhibition of LPS-induced TNFα production ([9]; 600 mg orally 3 hours prior to LPS challenge): 97%
Cmax [10]: 23.8 ± 5.71 ng/mL
Ex vivo inhibition of TNFα production ([11]; 50 mg): no inhibition was observed
EC50 calculated from ex-vivo inhibition of TNFα [11]: 1.228 µg/mL
IC50 [12]: 0.021 µM
Ex vivo neutrophil activation ([13]; 4 hours post dosing): dose dependent inhibition
Ex vivo neutrophil activation ([13]; 24 hours post dosing, various dose levels): mixed pattern of neutrophil inhibition and activation
Inhibition of plasma TNFα production ([14]; 0.3 mg/kg IV just prior to LPS 400 ng/kg IV): not significantly inhibited
Inhibition of plasma TNFα production ([14]; 1 mg/kg IV just prior to LPS 400 ng/kg IV, p<0.005): 85%
Inhibition of plasma TNFα production ([14]; 3 mg/kg IV just prior to LPS 400 ng/kg IV, p<0.005): 90%
ED50, inhibition of LPS-induced TNFα [15]: approximately 10 mg/kg
